Assay results: patent publication US20040234501A1, “Hepatitis b virus proliferation inhibitor” (priority 2001, published 2004)

What was measured:
[1] = Liver function (GPT) in a patient with chronic hepatitis B; type: in vivo, human
Protocol: (§1) Confirmation of the effect of IFN administration to a patient with chronic hepatitis B:
(§2) Therefore, 3,000,000 units of IFN-α were administered for a total of 28 days.

hepatitis B virus = assay: Amount of hepatitis B virus in the blood (HBV-DNA) and emergence of resistant virus in a patient with chronic hepatitis B; type: in vivo, human; details: after termination of IFN-α; 3,000,000 units for a total of 28 days
Protocol: as §1, §2

| Compound | GPT (liver function acutely worsened) ([1]; about 3 months after discontinuation of second lamivudine administration) | liver function ([1]; 3,000,000 units of IFN-α in combination with lamivudine, resistant virus present) | liver function ([1]; after termination of IFN-α, 3,000,000 units for a total of 28 days) | amount of hepatitis B virus in the blood (hepatitis B virus) |
| --- | --- | --- | --- | --- |
| Nc1ccn([C@@H]2CS[C@H](CO)O2)c(=O)n1 [lamivudine, reference compound] | 567 |  |  |  |
| interferon-α [IFN-α] |  | further worsened | worsened | again increased |
